The test system of this test is BDF1 mice, P388 leukemia ip, median survival T/C. Briefly: NCI In Vivo Anticancer Drug Screen. Data for tumor model P388 Leukemia (intraperitoneal) in B6D2F1 (BDF1) mice. Conditions: endpoint: median survival time, higher = longer survival. A digest of the protocol: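 Transplantable tumour in mice; compound vs vehicle dosing; survival scored; ratio of treated to control reported.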

[1] abbreviates: dose: 12.5 mg/kg/injection, schedule: Q04DX003 (ip), vehicle: saline.
Setting [2] is: dose: 25.0 mg/kg/injection, schedule: Q04DX003 (ip), vehicle: saline.
Where [3] appears, read: dose: 100.0 mg/kg/injection, schedule: Q04DX003 (ip), vehicle: Klucel (hydroxypropylcellulose) (HPC).
Setting [4] is: dose: 200.0 mg/kg/injection, schedule: Q04DX003 (ip), vehicle: Klucel (hydroxypropylcellulose) (HPC).
Where [5] appears, read: dose: 400.0 mg/kg/injection, schedule: Q04DX003 (ip), vehicle: Klucel (hydroxypropylcellulose) (HPC).
Setting [6] is: dose: 100.0 mg/kg/injection, schedule: Q04DX003 (ip), vehicle: saline with Tween-80.
Where [7] appears, read: dose: 200.0 mg/kg/injection, schedule: Q04DX003 (ip), vehicle: saline with Tween-80.
Setting [8] is: dose: 400.0 mg/kg/injection, schedule: Q04DX003 (ip), vehicle: saline with Tween-80.
[9] abbreviates: dose: 25.0 mg/kg/injection, schedule: Q01DX009 (ip), vehicle: saline with Tween-80.
Where [10] appears, read: dose: 50.0 mg/kg/injection, schedule: Q01DX009 (ip), vehicle: saline with Tween-80.
[11] abbreviates: dose: 100.0 mg/kg/injection, schedule: Q01DX009 (ip), vehicle: saline with Tween-80.
The mark [12] stands for this setting: dose: 12.5 mg/kg/injection, schedule: Q01DX009 (ip), vehicle: saline with Tween-80.
[13] abbreviates: dose: 100.0 mg/kg/injection, schedule: Q04DX003 (ip), vehicle: saline.
The mark [14] stands for this setting: dose: 200.0 mg/kg/injection, schedule: Q04DX003 (ip), vehicle: saline.
Where [15] appears, read: dose: 400.0 mg/kg/injection, schedule: Q04DX003 (ip), vehicle: saline.
Setting [16] is: dose: 100.0 mg/kg/injection, schedule: Q01DX009 (ip), vehicle: saline.
Setting [17] is: dose: 200.0 mg/kg/injection, schedule: Q01DX009 (ip), vehicle: saline.
The mark [18] stands for this setting: dose: 400.0 mg/kg/injection, schedule: Q01DX009 (ip), vehicle: saline.
[19] abbreviates: dose: 100.0 mg/kg/injection, schedule: Q01DX009 (ip), vehicle: other.
The mark [20] stands for this setting: dose: 200.0 mg/kg/injection, schedule: Q01DX009 (ip), vehicle: other.

The structures appear in SMILES notation. Several values for one entry are separate records, joined by “and”; a condition that tells them apart may be missing. Equal values may be shown once. Inconclusive results and toxic doses are left out. Residues, ends and D or L forms follow the SMILES beside them. *: point of attachment. Trt = c1ccc(C(c2ccccc2)(c2ccccc2)*)cc1; Bn = c1ccc(C*)cc1

The values below come from PubChem BioAssay AID328 (DTP/NCI, 2004).

Turning to `COc1cccc2c1C(=O)c1c(O)c3c(c(O)c1C2=O)C[C@@](O)(C(C)O)C[C@@H]3OC1CC(N(Cc2ccccc2)Cc2ccccc2)C(O)C(C)O1` (some centres undefined), the T/C runs as follows: (dose: 2.5 mg/kg/injection, schedule: Q01DX009 (ip), vehicle: water) 108 % of control; (dose: 5.0 mg/kg/injection, schedule: Q01DX009 (ip), vehicle: water) 112 % of control; (dose: 20.0 mg/kg/injection, schedule: Q01DX009 (ip), vehicle: water) 166 % of control; (dose: 40.0 mg/kg/injection, schedule: Q01DX009 (ip), vehicle: water) 229 % of control.
`CC(O)CN1CC(C)N(CC(C)O)CC1C` (centres undefined): the T/C runs as follows: under setting [1], 104 % of control; under setting [2], 100 % of control; (dose: 50.0 mg/kg/injection, schedule: Q04DX003 (ip), vehicle: saline) 100 % of control.
With `O=Cc1[nH]c(=S)[nH]c(=O)c1Cc1ccccc1Cl`, the T/C was 100 % of control under setting [3], 100 % of control under setting [4] and 100 % of control under setting [5].
As for `c1ccc(CCSc2ccccc2)cc1`, the T/C is 113 % of control under setting [6], 109 % of control under setting [7] and 118 % of control under setting [8].
As to `CC1CCCCN1CCNc1ccc(CO)c2sc3ccccc3c(=O)c12` (centres undefined), the T/C is 115 % of control under setting [9]; 119 % of control (dose: 44.0 mg/kg/injection, schedule: Q01DX009 (ip), vehicle: saline with Tween-80); 119 % of control under setting [10]; 192 % of control and 210 % of control under setting [11]; 278 % of control (dose: 150.0 mg/kg/injection, schedule: Q01DX009 (ip), vehicle: saline with Tween-80); 97 % of control (dose: 200.0 mg/kg/injection, schedule: Q01DX009 (ip), vehicle: saline with Tween-80).
Turning to `COc1cc2c3cc1Oc1c(OC)c(OC)cc4c1C(Cc1ccc(O)c(c1)-c1cc(ccc1OC)CC3N(C)CC2)N(C)CC4` (centres undefined), the T/C is 91 % of control (dose: 1.56 mg/kg/injection, schedule: Q01DX009 (ip), vehicle: Klucel (hydroxypropylcellulose) (HPC)); 87 % of control (dose: 3.13 mg/kg/injection, schedule: Q01DX009 (ip), vehicle: Klucel (hydroxypropylcellulose) (HPC)); 87 % of control (dose: 6.25 mg/kg/injection, schedule: Q01DX009 (ip), vehicle: Klucel (hydroxypropylcellulose) (HPC)); 88 % of control (dose: 50.0 mg/kg/injection, schedule: Q01DX009 (ip), vehicle: carboxymethylcellulose (CMC)).
In the case of `Nc1nc2ncc(CNc3ccc(C(=O)NC(CCC(=O)O)C(=O)O)cc3)nc2c(=O)[nH]1` (centres undefined), the T/C runs as follows: under setting [12], 100 % of control; under setting [9], 106 % of control; under setting [10], 107 % of control; (dose: 50.0 mg/kg/injection, schedule: Q01DX010 (ip), vehicle: saline) 100 % of control.
As to `COc1cc2c(cc1O)CCCCC2=O`, the T/C was 109 % of control under setting [9]; 104 % of control under setting [10]; 104 % of control under setting [11]; 110 % of control under setting [3]; 95 % of control under setting [4]; 90 % of control under setting [5].
In the case of `CCOC1NC(C)(C)CO1` (centres undefined), the T/C under setting [13] was 100 % of control, the T/C under setting [14] was 91 % of control and the T/C under setting [15] is 95 % of control.
For the molecule `CCN(CC)P1(=S)OCC(C)O1` (centres undefined), the T/C reads like this: under setting [6], 92 % of control; under setting [7], 100 % of control; under setting [8], 111 % of control.
`O=C1CCC(C(=O)N/N=C\C=N/NC(=O)C2CCC(=O)N2)N1` (centres undefined): where the note is “dose: 20.0 mg/kg/injection, schedule: Q01DX009 (ip), vehicle: saline with Tween-80”, the T/C was 91 % of control.
Take `[Au].c1ccc(-c2nn[nH]n2)cc1.c1ccc(P(c2ccccc2)c2ccccc2)cc1`: the T/C by setting is: (dose: 6.25 mg/kg/injection, schedule: Q01DX009 (ip), vehicle: saline with Tween-80) 104 % of control; under setting [12], 106 % of control; under setting [9], 123 % of control.
Take `Cc1c(N)cc([N+](=O)[O-])c(C)c1[N+](=O)[O-]`: the T/C was 95 % of control under setting [10] and 90 % of control under setting [11].
Turning to `COc1cc(C)ccc1C(=O)c1ccc(C)cc1OC`, the T/C by setting is: under setting [3], 90 % of control; under setting [4], 90 % of control; under setting [5], 109 % of control.
In the case of `C=C(C)C(=O)OC1CC2(C)OC2CC(OC(C)=O)/C(C)=C/C2OC(=O)C(=C)C21` (centres undefined), the T/C (dose: 11.25 mg/kg/injection, schedule: Q01DX009 (ip), vehicle: saline) was 118 % of control.
On to `N/C(CCNO)=N\O`, for which the T/C is 96 % of control (dose: 75.0 mg/kg/injection, schedule: Q01DX009 (ip), vehicle: saline); 86 % of control (dose: 150.0 mg/kg/injection, schedule: Q01DX009 (ip), vehicle: saline); 96 % of control (dose: 300.0 mg/kg/injection, schedule: Q01DX009 (ip), vehicle: saline).
On to `CCN1c2c(nc(N)[nH]c2=O)NCC1CNc1ccc(C(=O)NC(CCC(=O)O)C(=O)O)cc1` (centres undefined), for which the T/C under setting [16] was 101 % of control, the T/C under setting [17] was 105 % of control and the T/C under setting [18] is 105 % of control.
For `Cc1cc(N(C)C)c2ccc3cc4ccccc4cc3c2n1`, the T/C is, setting by setting: under setting [9], 95 % of control; under setting [10], 95 % of control and 114 % of control; under setting [11], 92 % of control and 121 % of control.
Take `COC(=O)CCCNC(=O)/C=C1/c2cc(OC)c(OC)cc2CCC1S(=O)(=O)OC` (centres undefined): the T/C was 104 % of control under setting [16], 90 % of control under setting [17] and 100 % of control under setting [18].
Take `COC(=O)C(CSC(c1ccccc1)(c1ccccc1)c1ccccc1)NC(=O)C(CSCc1ccccc1)NC(C)=O` (centres undefined) (Ac-Cys(Bn)-Cys(Trt)-OMe; configuration not given here): the T/C under setting [19] was 88 % of control; the T/C under setting [20] is 93 % of control; the T/C (dose: 400.0 mg/kg/injection, schedule: Q01DX009 (ip), vehicle: other) was 107 % of control.
Regarding `N#CC(C#N)=Cc1cccc2ccccc12`, the T/C is 104 % of control under setting [3], 100 % of control under setting [4] and 113 % of control under setting [5].
As to `Cc1cc(Cl)ccc1NS(=O)(=O)c1ccc(Br)cc1`, the T/C is 90 % of control under setting [6], 90 % of control under setting [7] and 95 % of control under setting [8].
Take `N#Cc1cnn2c(=O)[nH]cnc12`: the T/C reads like this: (dose: 50.0 mg/kg/injection, schedule: Q01DX009 (ip), vehicle: other) 100 % of control; under setting [19], 100 % of control; under setting [13], 100 % of control; under setting [20], 100 % of control; under setting [14], 100 % of control; under setting [15], 118 % of control.
In the case of `CCN(CC)Cc1c(O)ccc2c3c(c(=O)oc12)CCCC3`, the T/C is, setting by setting: (dose: 1.0 mg/kg/injection, schedule: Q01DX005 (ip), vehicle: saline) 112 % of control; (dose: 2.0 mg/kg/injection, schedule: Q01DX005 (ip), vehicle: saline) 106 % of control; (dose: 4.0 mg/kg/injection, schedule: Q01DX005 (ip), vehicle: saline) 112 % of control; (dose: 8.0 mg/kg/injection, schedule: Q01DX005 (ip), vehicle: saline) 104 % of control; (dose: 16.0 mg/kg/injection, schedule: Q01DX005 (ip), vehicle: saline) 98 % of control; (dose: 32.0 mg/kg/injection, schedule: Q01DX005 (ip), vehicle: saline) 102 % of control. In addition, the T/C (dose: 64.0 mg/kg/injection, schedule: Q01DX005 (ip), vehicle: saline) was 96 % of control.
For the molecule `CCOC(=O)Nc1cc(NC(C)CCCN(CC)CC)c2ncc(-c3ccc(Cl)c(Cl)c3)nc2n1` (centres undefined) (tested in a mixture with another compound), the T/C (dose: 6.25 mg/kg/injection, schedule: Q01DX009 (ip), vehicle: saline) was 109 % of control; the T/C (dose: 6.25 mg/kg/injection, schedule: Q04DX003 (ip), vehicle: saline) is 95 % of control; the T/C (dose: 12.5 mg/kg/injection, schedule: Q01DX009 (ip), vehicle: saline) is 100 % of control; the T/C under setting [1] is 95 % of control; the T/C (dose: 25.0 mg/kg/injection, schedule: Q01DX009 (ip), vehicle: saline) was 104 % of control; the T/C under setting [2] is 104 % of control.
